Read-outs that look alike come from different tables or passages of the source.
What was measured:
[1] = tested on: hTERT-HME1 cells carrying PIK3CA (E545K and H1047R) KI
[2] = tested on: hTERT-HME1 DKI cells carrying PIK3CA (H1047R) and EGFR (delE746-A750)
[3] = tested on: hTERT-HME1 cells carrying KRAS (G13D) KI
[4] = tested on: hTERT-HME1 cells carrying EGFR (delE746-A750) KI
[5] = tested on: hTERT-HME1 cells carrying BRAF (V600E) KI
[6] = tested on: hTERT-HME1 cells carrying EGFR (delE746-A750) KI; assay: Drug assay: cell viability by ATP content (CellTiter-Glo, 96 h), KI versus parental cells; ΔKI pharmarray analysis
[7] = tested on: hTERT-HME1 DKI cells carrying PIK3CA (H1047R) and EGFR (delE746-A750); assay: Drug assay: cell viability by ATP content (96 h), DKI versus parental cells; ΔKI pharmarray analysis
[8] = tested on: hTERT-HME1 cells carrying PIK3CA (E545K and H1047R) KI; assay: Drug assay: cell viability by ATP content (96 h) and Hoechst/propidium iodide staining, KI versus parental cells; ΔKI pharmarray analysis
[9] = tested on: hTERT-HME1 cells carrying KRAS (G13D) KI; assay: Drug assay: cell viability by ATP content (96 h), KI versus parental cells; ΔKI pharmarray analysis
[10] = tested on: hTERT-HME1 cells carrying BRAF (V600E) KI; assay: as above

## O=c1cc(N2CCOCC2)oc2c(-c3ccccc3)cccc12 [LY294002, LY 294002]
[1]; Log(M) −5.10
  ΔKI PIK3CA: 3.62

## CO[C@H]1C[C@@H]2CC[C@@H](C)[C@@](O)(O2)C(=O)C(=O)N2CCCC[C@H]2C(=O)O[C@H]([C@H](C)C[C@@H]2CC[C@@H](O)[C@H](OC)C2)CC(=O)[C@H](C)/C=C(\C)[C@@H](O)[C@@H](OC)C(=O)[C@H](C)C[C@H](C)/C=C/C=C/C=C/1C [rapamycin, Rapamycin]
[2]; Log(M) −5.40
  ΔKI PIK3CA + EGFR: 1.22
[2]; Log(M) −6.40
  ΔKI PIK3CA + EGFR: 0
[2]; Log(M) −7.40
  ΔKI PIK3CA + EGFR: 1.6
[2]; Log(M) −8.40
  ΔKI PIK3CA + EGFR: 0
[2]; Log(M) −9.40
  ΔKI PIK3CA + EGFR: 0.66
[2]; Log(M) −10.40
  ΔKI PIK3CA + EGFR: 0

## COc1cc(O)c2c(c1)O[C@H](c1ccc(O)cc1)CC2=O [Sakuranetin]
[2]; Log(M) −3.05
  ΔKI PIK3CA + EGFR: 0.04
[2]; Log(M) −3.52
  ΔKI PIK3CA + EGFR: 1.46
[3]; Log(M) −3.05
  ΔKI KRAS: 0
[3]; Log(M) −3.52
  ΔKI KRAS: 0
[4]; Log(M) −3.05
  ΔKI EGFR: 0.02
[4]; Log(M) −3.52
  ΔKI EGFR: 0.78
[5]; Log(M) −3.05
  ΔKI BRAF: 0.02
[5]; Log(M) −3.52
  ΔKI BRAF: 2.24
[1]; Log(M) −3.05
  ΔKI PIK3CA: 0
[1]; Log(M) −3.52
  ΔKI PIK3CA: 2.4

## O=c1cc(-c2ccc(O)cc2)oc2cc(O)cc(O)c12 [Apigenin]
[2]; Log(M) −4.40
  ΔKI PIK3CA + EGFR: 0
[2]; Log(M) −4.70
  ΔKI PIK3CA + EGFR: 0
[2]; Log(M) −5.00
  ΔKI PIK3CA + EGFR: 0
[3]; Log(M) −4.40
  ΔKI KRAS: 0
[3]; Log(M) −4.70
  ΔKI KRAS: 0
[3]; Log(M) −5.00
  ΔKI KRAS: 0
[4]; Log(M) −4.40
  ΔKI EGFR: 0
[4]; Log(M) −4.70
  ΔKI EGFR: 0
[4]; Log(M) −5.00
  ΔKI EGFR: 0
[5]; Log(M) −4.40
  ΔKI BRAF: −3.18
[5]; Log(M) −4.70
  ΔKI BRAF: −2.32
[5]; Log(M) −5.00
  ΔKI BRAF: 0
[1]; Log(M) −4.40
  ΔKI PIK3CA: 0
[1]; Log(M) −4.70
  ΔKI PIK3CA: 0
[1]; Log(M) −5.00
  ΔKI PIK3CA: 0

## Oc1cccc(-c2nc(N3CCOCC3)c3oc4ncccc4c3n2)c1 [PI-103]
[2]; Log(M) −6.00
  ΔKI PIK3CA + EGFR: 0
[2]; Log(M) −7.00
  ΔKI PIK3CA + EGFR: 0
[2]; Log(M) −8.00
  ΔKI PIK3CA + EGFR: 0
[3]; Log(M) −6.00
  ΔKI KRAS: 0
[3]; Log(M) −7.00
  ΔKI KRAS: 0
[3]; Log(M) −8.00
  ΔKI KRAS: 0
[4]; Log(M) −6.00
  ΔKI EGFR: 3.9
[4]; Log(M) −7.00
  ΔKI EGFR: 0
[4]; Log(M) −8.00
  ΔKI EGFR: 0
[5]; Log(M) −6.00
  ΔKI BRAF: 0
[5]; Log(M) −7.00
  ΔKI BRAF: 0
[5]; Log(M) −8.00
  ΔKI BRAF: 0
[1]; Log(M) −6.00
  ΔKI PIK3CA: 0
[1]; Log(M) −7.00
  ΔKI PIK3CA: 0
[1]; Log(M) −8.00
  ΔKI PIK3CA: 0

## CC[C@H](C)C(=O)O[C@H]1C[C@H](O)C=C2C=C[C@H](C)[C@H](CC[C@@H](O)C[C@@H](O)CC(=O)[O-])[C@H]21.[Na+] [Pravastatin Na]
[6]; Log(M) −4.32
  ΔKI EGFR: 0
[6]; Log(M) −4.92
  ΔKI EGFR: 0
[6]; Log(M) −5.52
  ΔKI EGFR: 0
[7]; Log(M) −4.32
  ΔKI PIK3CA + EGFR: 0
[7]; Log(M) −4.92
  ΔKI PIK3CA + EGFR: 0
[7]; Log(M) −5.52
  ΔKI PIK3CA + EGFR: 0
[8]; Log(M) −4.32
  ΔKI PIK3CA: 0
[8]; Log(M) −5.52
  ΔKI PIK3CA: 0
[9]; Log(M) −4.32
  ΔKI KRAS: 0
[9]; Log(M) −4.92
  ΔKI KRAS: 0
[9]; Log(M) −5.52
  ΔKI KRAS: 0
[10]; Log(M) −4.32
  ΔKI BRAF: 0
[10]; Log(M) −4.92
  ΔKI BRAF: 0
[10]; Log(M) −5.52
  ΔKI BRAF: 0

## COc1cccc(-c2cc(=O)c3ccccc3o2)c1N [PD 98059]
[6]; Log(M) −3.57
  ΔKI EGFR: 0
[6]; Log(M) −4.05
  ΔKI EGFR: 3.5
[6]; Log(M) −4.52
  ΔKI EGFR: 0
[7]; Log(M) −3.57
  ΔKI PIK3CA + EGFR: 0
[7]; Log(M) −4.05
  ΔKI PIK3CA + EGFR: 0
[7]; Log(M) −4.52
  ΔKI PIK3CA + EGFR: 0
[8]; Log(M) −3.57
  ΔKI PIK3CA: 0
[8]; Log(M) −4.05
  ΔKI PIK3CA: 0
[8]; Log(M) −4.52
  ΔKI PIK3CA: 0
[9]; Log(M) −3.57
  ΔKI KRAS: 0
[9]; Log(M) −4.05
  ΔKI KRAS: 0
[9]; Log(M) −4.52
  ΔKI KRAS: 0
[10]; Log(M) −3.57
  ΔKI BRAF: 0
[10]; Log(M) −4.05
  ΔKI BRAF: 0
[10]; Log(M) −4.52
  ΔKI BRAF: 4

## CCCCC/C=C\C/C=C\C/C=C\C/C=C\CCC(C)C(=O)NCCF (centres unmarked) [Met-F-AEA]
[6]
  ΔKI EGFR: 0
[7]
  ΔKI PIK3CA + EGFR: 0
[8]
  ΔKI PIK3CA: 0
[9]
  ΔKI KRAS: 0
[10]; listed as OGC-079
  ΔKI BRAF: 0.3

## O=c1[nH]cc(F)c(=O)[nH]1 [5-FU]
[6]
  ΔKI EGFR: 0
[7]
  ΔKI PIK3CA + EGFR: 0
[8]
  ΔKI PIK3CA: 0
[9]
  ΔKI KRAS: 0
[10]; listed as OGC-083
  ΔKI BRAF: 0
